Laboratory results: article PMC9944328 (Nature Communications, 2023)
Read-outs that look alike come from different tables or passages of the source.

Tested on: SSTR2 mutants
Assay: SSTRs Gi-mediated cAMP inhibition, GloSensor, HEK293, 5 μM forskolin, 15 min room temperature (SSTR2 mutants)
Type: cell-based, human
Design: Best-fit Bottom, cAMP inhibition / Best-fit Top, cAMP inhibition / Span, cAMP inhibition / Bottom (best-fit value) / Top (best-fit value) / Span (best-fit value) / Span (best-fit) / Bottom (best-fit) / Top (best-fit) / Best-fit Bottom / Best-fit Top / Best-fit Span / Top / Span: scale not given here
Experimental: The levels of the intracellular 3′, 5′-cyclic AMP (cAMP) were measured by the GloSensor cAMP assay (Promega) as described in the previous studies[28],[41] which has been widely used. The human full-length SSTRs and mutants were cloned into the pcDNA3.1+ vector with a HA signal sequence followed by a Flag tag at the N-terminus. HEK293 cells (ATCC, CRL-1573) were seeded into 6-well microplates at a density of 1.0 × 10^6 cells/well and cultured for 24 h at 37 °C with 5% CO2. Cells were then co-transfected with SSTR wild-type or mutants and GloSensor plasmids. After 24 h of transfection, the cells were dissociated with TrypLE™ Express Enzyme (1X) (Thermo Fisher Scientific) and collected by centrifugation at 500 × g for 5 min. Then the collected cells were suspended in Hank’s balanced salt solution [HBSS (Thermo Fisher Scientific)] supplemented with […] (YEASEN), and then the suspension cells were seeded into 96-well plates with 90 μl/well. After incubating at room temperature for 40 min, 5 μM forskolin and ligands diluted in HBSS were added to each well and the plates were incubated at room temperature for 15 min. […] were measured using the Synergy H1 microplate reader (BioTek) and the data presented are means of at least three independent experiments.

C[C@@H](O)[C@@H]1NC(=O)[C@H](CCCCN)NC(=O)[C@@H](Cc2c[nH]c3ccccc23)NC(=O)[C@H](Cc2ccccc2)NC(=O)[C@@H](NC(=O)[C@H](N)Cc2ccccc2)CSSC[C@@H](C(=O)N[C@H](CO)[C@@H](C)O)NC1=O [octreotide]
Top (best-fit value) (I284A-1, run 1): 116.3 | EC50 (I284A-1, run 1, read-out: EC50 (best-fit value)): 1.36 nM | Bottom (best-fit value) (I284A-2, run 2): -11.95 | LogEC50 (best-fit value) (I284A-2, run 2): -9.363 | Span (best-fit value) (I284A-2, run 2): 136.5 | Top (best-fit value) (I284A-2, run 2): 124.6 | EC50 (I284A-2, run 2, read-out: EC50 (best-fit value)): 0.433 nM | Bottom (best-fit value) (I284A-3, run 3): -6.083 | LogEC50 (best-fit value) (I284A-3, run 3): -8.813 | Span (best-fit value) (I284A-3, run 3): 75.58 | Top (best-fit value) (I284A-3, run 3): 69.5 | EC50 (I284A-3, run 3, read-out: EC50 (best-fit value)): 1.54 nM | Impact on Gi protein pathway (I284ECL3A and K291(7.32)A): relatively small | Best-fit Bottom (K291A-1): -13.76 | Best-fit Span (K291A-1): 86.2 | Best-fit Top (K291A-1): 72.44 | LogEC50 (K291A-1): -8.384 | EC50 (K291A-1, read-out: EC50): 4 nM | Best-fit Bottom (K291A-2): -3.629 | Best-fit Span (K291A-2): 91.53 | Best-fit Top (K291A-2): 87.9 | LogEC50 (K291A-2): -8.328 | EC50 (K291A-2, read-out: EC50): 4.7 nM | Best-fit Bottom (K291A-3): 3.692 | Best-fit Span (K291A-3): 104.2 | Best-fit Top (K291A-3): 107.9 | LogEC50 (K291A-3): -8.123 | EC50 (K291A-3, read-out: EC50): 7.54 nM | Best-fit Bottom (L290A-1): 32.91 | Best-fit Span (L290A-1): 84.91 | Best-fit Top (L290A-1): 117.8 | LogEC50 (L290A-1): -9.231 | EC50 (L290A-1, read-out: EC50): 0.588 nM | Best-fit Span (L290A-2): 90.85 | Best-fit Top (L290A-2): 95.5 | LogEC50 (L290A-2): -9.519 | Best-fit Bottom (L290A-3): 2.997 | Best-fit Span (L290A-3): 94.23 | Best-fit Top (L290A-3): 97.22 | LogEC50 (L290A-3): -9.438 | EC50 (L290A-3, read-out: EC50): 0.365 nM | Gi signaling of mutant (N276(6.55)A): still exerted Gi signaling activation | Bottom (best-fit) (N276A-1): -14.21 | LogEC50 (best-fit) (N276A-1): -7.981 | Span (best-fit) (N276A-1): 75.87 | Top (best-fit) (N276A-1): 61.65 | EC50 (N276A-1, read-out: EC50 (best-fit)): 10.4 nM | Bottom (best-fit) (N276A-2): 0.8581 | LogEC50 (best-fit) (N276A-2): -7.561 | Span (best-fit) (N276A-2): 112.9 | Top (best-fit) (N276A-2): 113.7 | EC50 (N276A-2, read-out: EC50 (best-fit)): 27.5 nM | Bottom (best-fit) (N276A-3): 2.316 | LogEC50 (best-fit) (N276A-3): -7.587 | Span (best-fit) (N276A-3): 109.8 | Top (best-fit) (N276A-3): 112.1 | EC50 (N276A-3, read-out: EC50 (best-fit)): 25.9 nM | Bottom (best-fit) (P220A-1): 19.71 | LogEC50 (best-fit) (P220A-1): -9.136 | Span (best-fit) (P220A-1): 47.88 | Top (best-fit) (P220A-1): 67.58 | EC50 (P220A-1, read-out: EC50 (best-fit)): 0.732 nM | Bottom (best-fit) (P220A-2): 10.44 | LogEC50 (best-fit) (P220A-2): -8.311 | Span (best-fit) (P220A-2): 101.1 | Top (best-fit) (P220A-2): 111.6 | EC50 (P220A-2, read-out: EC50 (best-fit)): 4.88 nM | Bottom (best-fit) (P220A-3): 7.137 | LogEC50 (best-fit) (P220A-3): -8.347 | Span (best-fit) (P220A-3): 101.3 | Top (best-fit) (P220A-3): 108.4 | EC50 (P220A-3, read-out: EC50 (best-fit)): 4.5 nM | Bottom (best-fit value) (P286A-1, run 1): -1.561 | LogEC50 (best-fit value) (P286A-1, run 1): -9.311 | Span (best-fit value) (P286A-1, run 1): 110.5 | Top (best-fit value) (P286A-1, run 1): 108.9 | EC50 (P286A-1, run 1, read-out: EC50 (best-fit value)): 0.489 nM | Bottom (best-fit value) (P286A-2, run 2): -0.685 | LogEC50 (best-fit value) (P286A-2, run 2): -9.269 | Span (best-fit value) (P286A-2, run 2): 107.2 | Top (best-fit value) (P286A-2, run 2): 106.5 | EC50 (P286A-2, run 2, read-out: EC50 (best-fit value)): 0.539 nM | Bottom (best-fit value) (P286A-3, run 3): -0.6493 | LogEC50 (best-fit value) (P286A-3, run 3): -9.076 | Span (best-fit value) (P286A-3, run 3): 92.48 | Top (best-fit value) (P286A-3, run 3): 91.83 | EC50 (P286A-3, run 3, read-out: EC50 (best-fit value)): 0.84 nM | Best-fit Bottom (S279A-1): 9.876 | Best-fit Span (S279A-1): 98.05 | Best-fit Top (S279A-1): 107.9 | LogEC50 (S279A-1): -9.015 | EC50 (S279A-1, read-out: EC50): 0.966 nM | Best-fit Span (S279A-2): 101.7 | Best-fit Top (S279A-2): 106.6 | LogEC50 (S279A-2): -8.897 | EC50 (S279A-2, read-out: EC50): 1.27 nM | Best-fit Bottom (S279A-3): 4.156 | Best-fit Span (S279A-3): 86.31 | Best-fit Top (S279A-3): 90.47 | LogEC50 (S279A-3): -8.897 | Bottom (best-fit value) (S285A-1, run 1): 7.122 | LogEC50 (best-fit value) (S285A-1, run 1): -9.176 | Span (best-fit value) (S285A-1, run 1): 90.01 | Top (best-fit value) (S285A-1, run 1): 97.13 | EC50 (S285A-1, run 1, read-out: EC50 (best-fit value)): 0.667 nM | Bottom (best-fit value) (S285A-2, run 2): 7.037 | LogEC50 (best-fit value) (S285A-2, run 2): -9.15 | Span (best-fit value) (S285A-2, run 2): 69.44 | Top (best-fit value) (S285A-2, run 2): 76.48 | EC50 (S285A-2, run 2, read-out: EC50 (best-fit value)): 0.707 nM | Bottom (best-fit value) (S285A-3, run 3): -3.857 | LogEC50 (best-fit value) (S285A-3, run 3): -9.167 | Span (best-fit value) (S285A-3, run 3): 92.79 | Top (best-fit value) (S285A-3, run 3): 88.94 | EC50 (S285A-3, run 3, read-out: EC50 (best-fit value)): 0.68 nM | Best-fit Bottom, cAMP inhibition (SSTR2 I195A-1, run 1): 1.138
